Source: ChEMBL document CHEMBL1129621, “Novel 5-aminoflavone derivatives as specific antitumor agents in breast cancer” (J Med Chem, 1996)

Assays:
MCF7 [1] = assay: Inhibition of estrogen receptor positive MCF-7 human breast cancer cell proliferation; assay type: functional, cell-based
WiDr [2] = assay: Inhibition of WiDr human cancer cell proliferation; assay type: functional, cell-based
MCF7 [3] = assay: cells; assay type: functional, cell-based; settings: Homo sapiens
Description: Anti-proliferative activity against estrogen-responsive human breast cancer cell line MCF-7 in the presence of ER at a 10e-4 uM concentration of estradiol

HeLa [4] = assay: Inhibition of […]e-2 uM estradiol induced human cancer cell HeLa S3 proliferation; assay type: functional, cell-based
Estrogen receptor = Estrogen receptor (Homo sapiens, UniProt Q92731+P03372)
Description: Binding affinity for estrogen receptor, by competition with [3H]estradiol

MCF7 [5] = assay: cells; assay type: functional, cell-based; settings: Homo sapiens; remark: listed apart in the source
Description: Inhibition of 10e-4 uM estradiol induced estrogen receptor positive MCF-7 human breast cancer cell proliferation

HeLa [6] = assay: cells; settings: Homo sapiens
Description: Inhibition of 10e-2 uM estradiol induced human cancer cell HeLa S3 proliferation

WiDr [7] = assay: Inhibition of WiDr human cancer cell proliferation with 10e-2 uM estradiol; assay type: functional, cell-based
MDA-MB-453 [8] = assay: Inhibition of estrogen receptor negative MDA-MB-453 breast cancer cell proliferation; assay type: functional, cell-based; settings: Homo sapiens
MDA-MB-453 [9] = assay: cells; settings: Homo sapiens
Description: Inhibition of estrogen receptor negative MDA-MB-453 breast cancer cell proliferation with 10e-4 M estradiol

| Compound | IC50 (MCF7 [3]) [µM] | IC50 (Estrogen receptor) [µM] | IC50 (MCF7 [5]) [µM] | further results |
| --- | --- | --- | --- | --- |
| CNc1ccc(-c2cc(=O)c3c(N)cccc3o2)cc1 | 0.0023 | > 100 | 0.0054 | IC50 (MCF7 [1]): 0.076 µM; IC50 (WiDr [2]): > 10 µM; IC50 (HeLa [4]): 6.3 µM |
| Nc1cccc2oc(-c3ccc(O)cc3)cc(=O)c12 | 1.5 | 18 | > 100 | – |
| CCNc1ccc(-c2cc(=O)c3c(N)cccc3o2)cc1 | 0.0013 | > 100 | 0.0017 | IC50 (MCF7 [1]): 0.092 µM; IC50 (WiDr [2]): > 10 µM; IC50 (HeLa [4]): > 10 µM |
| CCCCCCNc1ccc(-c2cc(=O)c3c(N)cccc3o2)cc1 | 0.075 | – | 0.44 | – |
| CN(C)c1ccc(-c2cc(=O)c3cc(N)ccc3o2)cc1 | 0.013 | – | 0.035 | – |
| COc1cccc2c1C(=O)c1c(O)c3c(c(O)c1C2=O)C[C@@](O)(C(=O)CO)C[C@@H]3O[C@H]1C[C@H](N)[C@H](O)[C@H](C)O1 [DOXORUBICIN] | – | – | – | IC50 (HeLa [6]): 0.03 µM; IC50 (WiDr [7]): 0.62 µM |
| CCCNc1ccc(-c2cc(=O)c3c(N)cccc3o2)cc1 | 0.0067 | > 100 | 0.0087 | – |
| CN(C)c1ccc(-c2cc(=O)c3cccc(N)c3o2)cc1 | 0.021 | – | 2 | – |
| Nc1ccc(-c2cc(=O)c3c(N)cccc3o2)cc1 | 0.0072 | > 100 | 0.0098 | IC50 (MCF7 [1]): 0.052 µM; IC50 (WiDr [2]): > 10 µM; IC50 (MDA-MB-453 [8]): > 5 µM; IC50 (HeLa [4]): > 10 µM |
| N#Cc1ccc(-c2cc(=O)c3c(N)cccc3o2)cc1 | > 100 | > 100 | 94 | – |
| COc1ccc(-c2cc(=O)c3c(N)cccc3o2)cc1 | 12 | > 100 | > 100 | – |
| O=c1cc(-c2ccc(O)cc2)oc2cc(O)cc(O)c12 [APIGENIN] | > 100 | – | 95 | – |
| O=c1c(-c2ccc(O)cc2)coc2cc(O)cc(O)c12 [GENISTEIN] | 11 | – | 77 | – |
| CN(C)c1ccc(-c2cc(=O)c3ccc(N)cc3o2)cc1 | 5 | – | 6.9 | – |
| Nc1cccc(-c2cc(=O)c3c(N)cccc3o2)c1 | 27 | – | > 100 | – |
| Nc1cccc2oc(-c3ccc(C(=O)O)cc3)cc(=O)c12 | > 10 | – | > 10 | – |
| CN(C)c1cccc(-c2cc(=O)c3cc(N)ccc3o2)c1 | 13 | – | 13 | – |
| CN(C)c1ccc(-c2cc(=O)c3c(N)cccc3o2)cc1 | 0.004 | > 100 | 0.005 | – |
| CCCCNc1ccc(-c2cc(=O)c3c(N)cccc3o2)cc1 | 0.0051 | > 100 | 0.0087 | – |
| CC/C(=C(\c1ccccc1)c1ccc(OCCN(C)C)cc1)c1ccccc1 [TAMOXIFEN] | 0.14 | – | 19 | IC50 (MDA-MB-453 [9]): > 5 µM |
| CC(=O)Nc1ccc(-c2cc(=O)c3c(N)cccc3o2)cc1 | 13 | > 100 | 18 | – |
| Nc1cccc2oc(-c3ccc(Br)cc3)cc(=O)c12 | 1 | > 100 | 9.5 | – |
| CCN(CC)c1ccc(-c2cc(=O)c3c(N)cccc3o2)cc1 | 0.002 | – | 0.01 | – |
| Nc1cccc2oc(-c3ccccc3)cc(=O)c12 | 13 | > 100 | > 100 | – |
| Nc1cccc2oc(-c3ccc(NCc4ccccc4)cc3)cc(=O)c12 | 4.1 | > 100 | 4.3 | – |
